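A five-concentration, 48-hour dose response in 96-well plates underlies each endpoint, interpolated linearly between surrounding concentrations. At the GI50, growth is halved.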 Active and inactive are the calls of the source. Cut-off read from the data, not from the text of the source: active = GI50 up to about 1.1 µM and inactive = higher.
Legend:
Assay in all cases: NCI-60 cell line screen, 48 h
[1] = system: HT-29
[2] = system: HCT-15
[3] = system: 786-0
[4] = system: CCRF-CEM
[5] = system: SF-268
[6] = system: LOX IMVI
[7] = system: OVCAR-8
[8] = system: MOLT-4
[9] = system: SK-MEL-28
[10] = system: TK-10
[11] = system: UACC-62
[12] = system: Malme-3M
[13] = system: RPMI-8226
[14] = system: SN12C
[15] = system: CAKI-1
[16] = system: M14
[17] = system: MDA-MB-231
[18] = system: KM12
[19] = system: IGROV-1
[20] = system: HOP-92
[21] = system: A549
[22] = system: K562
[23] = system: MCF7
[24] = system: SF-295
[25] = system: MDA-N
[26] = system: HCC 2998
[27] = system: SK-OV-3
[28] = system: UACC-257
[29] = system: EKVX
[30] = system: NCI-H23
[31] = system: SK-MEL-5
[32] = system: SR
[33] = system: HL-60
[34] = system: SW-620
[35] = system: OVCAR-4
[36] = system: T47D
[37] = system: HOP-62
[38] = system: COLO 205
[39] = system: SNB-75
[40] = system: DU-145
[41] = system: RXF 393
[42] = system: MDA-MB-435
[43] = system: PC-3
[44] = system: NCI-H460
[45] = system: U-251
[46] = system: UO-31
[47] = system: ACHN
[48] = system: Hs-578T
[49] = system: HCT-116
[50] = system: SNB-19
[51] = system: A498
[52] = system: NCI-H226
[53] = system: NCI/ADR-RES
[54] = system: NCI-H522
[55] = system: SF-539
[56] = system: SK-MEL-2

CCCC(=O)OC1=C(c2ccccc2)Sc2ccccc2-n2cccc21
GI50 [1]: > 10 µM (inactive)
GI50 [2]: > 10 µM
GI50 [3]: > 10 µM (inactive)
GI50 [4]: > 10 µM (inactive)
GI50 [5]: > 10 µM (inactive)
GI50 [6]: > 10 µM (inactive)
GI50 [7]: > 10 µM (inactive)
GI50 [8]: > 10 µM (inactive)
GI50 [9]: > 10 µM (inactive)
GI50 [10]: > 10 µM (inactive)
GI50 [11]: > 10 µM (inactive)
GI50 [12]: > 10 µM (inactive)
GI50 [13]: > 10 µM (inactive)
GI50 [14]: > 10 µM (inactive)
GI50 [15]: > 10 µM (inactive)
GI50 [16]: > 10 µM (inactive)
GI50 [17]: > 10 µM (inactive)
GI50 [18]: > 10 µM (inactive)
GI50 [19]: > 10 µM (inactive)
GI50 [20]: > 10 µM (inactive)
GI50 [21]: > 10 µM (inactive)
GI50 [22]: > 10 µM (inactive)
GI50 [23]: > 10 µM (inactive)
GI50 [24]: > 10 µM (inactive)
GI50 [25]: > 10 µM (inactive)
GI50 [26]: > 10 µM (inactive)
GI50 [27]: > 10 µM (inactive)
GI50 [28]: > 10 µM (inactive)
GI50 [29]: > 10 µM (inactive)
GI50 [30]: > 10 µM (inactive)
GI50 [31]: > 10 µM (inactive)
GI50 [32]: > 10 µM (inactive)
GI50 [33]: > 10 µM (inactive)
GI50 [34]: > 10 µM (inactive)
GI50 [35]: > 10 µM (inactive)
GI50 [36]: > 10 µM (inactive)
GI50 [37]: > 10 µM (inactive)
GI50 [38]: > 10 µM (inactive)
GI50 [39]: > 10 µM (inactive)
GI50 [40]: > 10 µM (inactive)
GI50 [41]: > 10 µM (inactive)
GI50 [42]: 8.57 µM (inactive)
GI50 [43]: > 10 µM (inactive)

O=c1c(Nc2ccccc2)cn(CCOc2ccc(Cl)cc2)c(=O)n1CCOc1ccc(Cl)cc1
GI50 [2]: > 100 µM
GI50 [3]: 28.1 µM (inactive)
GI50 [4]: 64 µM (inactive)
GI50 [5]: 89.9 µM (inactive)
GI50 [44]: > 100 µM (inactive)
GI50 [45]: > 100 µM (inactive)
GI50 [46]: 51.9 µM (inactive)
GI50 [6]: > 100 µM (inactive)
GI50 [47]: > 100 µM (inactive)
GI50 [8]: > 100 µM (inactive)
GI50 [9]: > 100 µM (inactive)
GI50 [11]: > 100 µM (inactive)
GI50 [48]: 60 µM (inactive)
GI50 [13]: > 100 µM (inactive)
GI50 [14]: > 100 µM (inactive)
GI50 [15]: > 100 µM (inactive)
GI50 [16]: 60.3 µM (inactive)
GI50 [18]: > 100 µM (inactive)
GI50 [19]: > 100 µM (inactive)
GI50 [21]: > 100 µM (inactive)
GI50 [22]: > 100 µM (inactive)
GI50 [24]: > 100 µM (inactive)
GI50 [25]: > 100 µM (inactive)
GI50 [26]: 22.2 µM (inactive)
GI50 [49]: > 100 µM (inactive)
GI50 [50]: > 100 µM (inactive)
GI50 [28]: > 100 µM (inactive)
GI50 [29]: 55.7 µM (inactive)
GI50 [30]: > 100 µM (inactive)
GI50 [31]: 75.2 µM (inactive)
GI50 [32]: 96.2 µM (inactive)
GI50 [34]: > 100 µM (inactive)
GI50 [51]: > 100 µM (inactive)
GI50 [35]: 26.7 µM (inactive)
GI50 [38]: > 100 µM (inactive)
GI50 [40]: 75.2 µM (inactive)
GI50 [41]: 36.4 µM (inactive)
GI50 [42]: 39.1 µM (inactive)
GI50 [43]: 41.1 µM (inactive)

COc1ccc(OC)c(C2CCCc3c2cnc2nc(N)nc(N)c32)c1 (centres undefined)
GI50 [1]: < 0.01 µM (active)
GI50 [2]: < 0.01 µM
GI50 [3]: < 0.01 µM (active)
GI50 [44]: < 0.01 µM (active)
GI50 [6]: < 0.01 µM (active)
GI50 [7]: < 0.01 µM (active)
GI50 [47]: < 0.01 µM (active)
GI50 [8]: < 0.0168 µM (active)
GI50 [9]: > 100 µM (inactive)
GI50 [10]: 0.0217 µM (active)
GI50 [11]: < 0.01 µM (active)
GI50 [12]: < 0.0238 µM (active)
GI50 [48]: > 57.3 µM (inactive)
GI50 [52]: > 100 µM (inactive)
GI50 [13]: 0.0695 µM (active)
GI50 [14]: < 0.01 µM (active)
GI50 [15]: 0.0982 µM (active)
GI50 [16]: < 0.01 µM (active)
GI50 [17]: > 100 µM (inactive)
GI50 [18]: 0.0716 µM (active)
GI50 [19]: < 0.01 µM (active)
GI50 [20]: 0.863 µM (active)
GI50 [21]: < 0.01 µM (active)
GI50 [22]: < 0.01 µM (active)
GI50 [23]: < 0.01 µM (active)
GI50 [24]: < 0.0143 µM (active)
GI50 [25]: < 0.01 µM (active)
GI50 [26]: < 0.01 µM (active)
GI50 [49]: < 0.01 µM (active)
GI50 [50]: 0.0703 µM (active)
GI50 [28]: < 0.01 µM (active)
GI50 [29]: > 100 µM (inactive)
GI50 [53]: 1.04 µM (active)
GI50 [30]: < 0.01 µM (active)
GI50 [31]: < 0.01 µM (active)
GI50 [32]: < 0.01 µM (active)
GI50 [33]: < 0.01 µM (active)
GI50 [35]: > 100 µM (inactive)
GI50 [38]: 0.352 µM (active)
GI50 [39]: 0.247 µM (active)
GI50 [40]: 0.0132 µM (active)
GI50 [54]: < 0.0392 µM (active)
GI50 [41]: < 0.0129 µM (active)
GI50 [55]: < 0.0119 µM (active)
GI50 [42]: < 0.01 µM (active)
GI50 [43]: > 71.1 µM (inactive)
GI50 [56]: > 100 µM (inactive)

From ChEMBL document CHEMBL1201862, “PubChem BioAssay data set” (2004)
